How the values were obtained:
human 5-HT1A receptor = target: T1, human 5-HT1A receptor (Homo sapiens, UniProt P08908); assay: 5-HT1A receptor binding ([3H]8-hydroxy-DPAT displacement, CHO-K1 membranes)
T1 construct: expressed in transfected cells; host or cells: CHO-K1
T1 sequence (P08908 1-422): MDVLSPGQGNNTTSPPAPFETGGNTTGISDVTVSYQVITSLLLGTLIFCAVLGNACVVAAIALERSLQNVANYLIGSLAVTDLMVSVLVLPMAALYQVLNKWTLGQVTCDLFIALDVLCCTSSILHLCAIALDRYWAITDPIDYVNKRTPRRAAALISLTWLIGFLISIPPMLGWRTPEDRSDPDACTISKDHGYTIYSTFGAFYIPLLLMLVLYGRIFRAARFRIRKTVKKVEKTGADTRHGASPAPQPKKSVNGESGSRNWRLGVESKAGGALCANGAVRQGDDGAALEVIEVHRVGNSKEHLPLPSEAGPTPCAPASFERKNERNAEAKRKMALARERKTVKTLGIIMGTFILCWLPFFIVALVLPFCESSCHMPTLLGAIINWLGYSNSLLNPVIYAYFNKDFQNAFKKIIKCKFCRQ
Procedure: Because the 5-HT1A receptor is a commonly observed off-site binding site for benzamide N-phenylpiperazine ligands, compounds were simultaneously screened for binding of our compounds at the human 5-HT1A receptor expressed in CHO-K1 cells, using the radioligand [^3H]-8-hydroxy-DPAT (8-OH-DPAT) (Table 2). Based upon the analysis of the displacement assay shown in Table 2, the orthosteric compounds 3c–f appeared to bind with low affinity at human 5-HT1A receptors.
10 μg of membranes from CHO-K1 cells expressing the human 5-HT1A receptor were suspended in 50 mM Tris-HCl, 10 mM MgSO4, 0.5 mM EDTA, and 0.1% (w/v) ascorbic acid, pH 7.4 and test ligands (91 nM for single point radioligand displacement assay and 1 nM to 1 μM for full competition assay) were incubated with 0.25 nM [^3H]8-hydroxy-DPAT (PerkinElmer, Boston, MA, USA) for 60 min at room temperature. The nonspecific binding was determined using 10 μM metergoline (Sigma, St. Louis, MO, USA). After incubation, the bound ligands were filtered using an M-24 Brandel filtration system (Brandel, Gaithersburg, MD, USA), collected on glass fiber papers (Whatman grade 934-AH, GE Healthcare Bio-Sciences, Pittsburgh, PA, USA), and the radioactivity was quantitated using a MicroBeta2 Microplate scintillation counter 2450 (PerkinElmer, Boston, MA, USA).

D3 dopamine receptor [1] = target: T2, D3 dopamine receptor (Homo sapiens, UniProt P35462); assay: β-arrestin binding assay (DiscoverX PathHunter, DRD3-U2OS cells); format: cell-based; parameters: host or cells: U2OS (PathHunter eXpress DRD3-U2OS); details: human D3, test compound at 10x Ki, normalized to quinpirole
T2 sequence (P35462 whole entry): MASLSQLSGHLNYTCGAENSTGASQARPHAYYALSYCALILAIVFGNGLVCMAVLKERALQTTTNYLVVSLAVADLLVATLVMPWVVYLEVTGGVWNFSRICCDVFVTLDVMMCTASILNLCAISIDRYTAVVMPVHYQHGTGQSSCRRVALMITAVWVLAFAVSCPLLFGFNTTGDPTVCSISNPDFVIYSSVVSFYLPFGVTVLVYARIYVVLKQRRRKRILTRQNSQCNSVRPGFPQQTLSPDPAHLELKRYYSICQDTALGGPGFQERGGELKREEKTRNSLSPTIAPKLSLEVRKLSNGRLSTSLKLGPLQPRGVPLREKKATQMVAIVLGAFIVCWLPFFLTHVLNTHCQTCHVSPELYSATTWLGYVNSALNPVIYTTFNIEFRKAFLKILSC
Procedure: (§1) Quinpirole was used as a reference prototypic full agonist and haloperidol was used as a reference prototypic antagonist.
The β-arrestin binding assay was performed using a DiscoverX Pathhunter® kit according to the manufacturer’s instructions. PathHunter® eXpress β-Arrestin GPCR cells are engineered to co-express the ProLink™ (PK) tagged GPCR and the Enzyme Acceptor (EA) tagged β-Arrestin. Activation of the GPCR-PK induces β-Arrestin-EA recruitment, forcing complementation of the two β-galactosidase enzyme fragments (EA and PK). The resulting functional enzyme hydrolyzes substrate to generate a chemiluminescent signal. DRD3-U2OS cells were seeded according to kit instructions into white plastic 96-well plates (provided with the kit) 48 h prior to the assay in a volume of 100 μL/well using the Cell Plating Reagent (CPR) provided. Vehicle or test drug, diluted in CPR, was added to the designated wells and incubated for 90 min at 37 °C. Working detection solution (a component provided with the kit) was added to the wells and incubated for 1 h in the dark at room temperature. As discussed for the cyclase assay, an Enspire Alpha 2390 Multilabel Reader/Luminometer was used to detect the luminescent signal with haloperidol and quinpirole used as reference antagonist and full agonist, respectively.
(§2) Figure 3 Comparison of the Efficacy of Phenylthiophene Analogs for Adenylyl Cyclase Inhibition and β-Arrestin Binding at Human D3 Dopamine Receptors. […] Values were normalized to reference full agonist quinpirole (10,000 nM).

D3 dopamine receptor [2] = target: T2, D3 dopamine receptor; assay: Forskolin-dependent adenylyl cyclase inhibition assay (cAMP-Glo, HEK cells); format: cell-based; parameters: expressed in transfected cells; host or cells: HEK293; details: human D3, test compound at 10x Ki, normalized to quinpirole 10,000 nM
Procedure: as §1
The forskolin-dependent adenylyl cyclase inhibition assay was performed using a cAMP-Glo Assay kit (Promega). For this assay cAMP stimulates protein kinase A (PKA) activity, which leads to a decrease in ATP levels and a decrease in the luciferase-coupled production of light. This is a 96 well plate assay using HEK cells stably transfected to express the human D3 dopamine receptor (10,000 cells/well/0.1 mL complete media). After removing media and rinsing with phosphate buffered saline, cells were incubated with 20 μL of forskolin (6000 nM) and test compound or vehicle. […] After cells, test compound (or vehicle) and forskolin (or vehicle) were incubated for 15 min, cells were lysed using 20 μL lysis buffer (provided with the kit) and mixed for 15 min at room temperature. A cAMP Detection Solution (40 μL) was added to each well, gently mixed for 60 s and incubated at room temperature for 20 min. The Kinase-Glo Solution was added (40 μL) to terminate the PKA reaction. The reaction mixture was gently mixed for 60 s and then incubated at room temperature for 10 min. The remaining ATP was detected via a luciferase reaction. The plates were read using an Enspire Alpha 2390 Multilabel Reader/Luminometer. Haloperidol (200 nM) and quinpirole (10,000 nM) was used as a prototypic reference antagonist and full agonist, respectively.
as §2

## O=C(NCCCCN1CCN(c2ccccc2F)CC1)c1ccc(-c2ccsc2)cc1 [Compound 6a]
Human 5-HT1A receptor; 5-HT1A Ki vs. D3 Ki
  5-HT1A affinity lower than D3 affinity: approximately 140 fold
Human 5-HT1A receptor; full competition curve, [3H]-8-hydroxy-DPAT, at least three experiments, read-out: Ki at 5-HT1A receptor
  Ki: 199 nM
Human 5-HT1A receptor; radioligand displacement assessment at 91 nM
  5-HT1A receptor affinity/displacement in words: decreased binding affinity
Human 5-HT1A receptor; single point displacement of [3H]-8-hydroxy-DPAT, 91 nM test compound, CHO-K1, ± S.E.M., n ≥ 3
  inhibition at 0.091 µM: -3.3 ± 15.1%
D3 dopamine receptor [1]
  efficacy in β-arrestin binding assay: weak partial agonists
D3 dopamine receptor [2]
  efficacy in adenylyl cyclase inhibition assay: weak partial agonists
